One series has as its target hCav1.2 (Homo sapiens, UniProt Q13936). The experiment in a line: voltage clamp currents in mammalian cells stably transfected with cloned ion channel cDNA, hCav1.2. Format: cell-based. An excerpt:
(§1) Nonlinear least squares fits of the current ratio data yielded the best fit value for the IC50 concentration. A positive control was included for each channel tested in the study.

The next series deals with T1, hKv4.3 (Homo sapiens, UniProt Q9UK17).
T1 construct: expressed in transfected cells
T1 sequence (Q9UK17 1-655): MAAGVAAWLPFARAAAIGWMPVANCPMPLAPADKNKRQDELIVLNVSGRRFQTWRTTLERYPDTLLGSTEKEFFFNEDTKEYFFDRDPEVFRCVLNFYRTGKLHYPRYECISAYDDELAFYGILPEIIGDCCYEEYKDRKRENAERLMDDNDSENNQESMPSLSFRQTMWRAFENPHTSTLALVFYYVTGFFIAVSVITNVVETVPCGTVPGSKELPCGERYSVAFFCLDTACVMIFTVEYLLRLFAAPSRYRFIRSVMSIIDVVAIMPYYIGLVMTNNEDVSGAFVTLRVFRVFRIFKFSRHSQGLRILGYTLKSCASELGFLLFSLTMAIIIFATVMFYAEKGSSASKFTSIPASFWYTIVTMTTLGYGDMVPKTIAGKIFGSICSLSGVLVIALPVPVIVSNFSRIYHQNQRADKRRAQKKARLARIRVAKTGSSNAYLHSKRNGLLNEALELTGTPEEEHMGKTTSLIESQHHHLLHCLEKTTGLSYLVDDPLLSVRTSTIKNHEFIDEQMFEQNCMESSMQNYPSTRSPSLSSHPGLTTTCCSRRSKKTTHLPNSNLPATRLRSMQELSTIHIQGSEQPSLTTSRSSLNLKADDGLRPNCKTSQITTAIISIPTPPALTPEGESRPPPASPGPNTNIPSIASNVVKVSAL
The experiment in a line: voltage clamp currents in mammalian cells stably transfected with cloned ion channel cDNA, hKv4.3. Format: cell-based.
Source text: as §1

The target of another series is T2, hHCN4 (Homo sapiens, UniProt Q9Y3Q4).
T2 construct: expressed in transfected cells
T2 sequence (Q9Y3Q4 1-1203): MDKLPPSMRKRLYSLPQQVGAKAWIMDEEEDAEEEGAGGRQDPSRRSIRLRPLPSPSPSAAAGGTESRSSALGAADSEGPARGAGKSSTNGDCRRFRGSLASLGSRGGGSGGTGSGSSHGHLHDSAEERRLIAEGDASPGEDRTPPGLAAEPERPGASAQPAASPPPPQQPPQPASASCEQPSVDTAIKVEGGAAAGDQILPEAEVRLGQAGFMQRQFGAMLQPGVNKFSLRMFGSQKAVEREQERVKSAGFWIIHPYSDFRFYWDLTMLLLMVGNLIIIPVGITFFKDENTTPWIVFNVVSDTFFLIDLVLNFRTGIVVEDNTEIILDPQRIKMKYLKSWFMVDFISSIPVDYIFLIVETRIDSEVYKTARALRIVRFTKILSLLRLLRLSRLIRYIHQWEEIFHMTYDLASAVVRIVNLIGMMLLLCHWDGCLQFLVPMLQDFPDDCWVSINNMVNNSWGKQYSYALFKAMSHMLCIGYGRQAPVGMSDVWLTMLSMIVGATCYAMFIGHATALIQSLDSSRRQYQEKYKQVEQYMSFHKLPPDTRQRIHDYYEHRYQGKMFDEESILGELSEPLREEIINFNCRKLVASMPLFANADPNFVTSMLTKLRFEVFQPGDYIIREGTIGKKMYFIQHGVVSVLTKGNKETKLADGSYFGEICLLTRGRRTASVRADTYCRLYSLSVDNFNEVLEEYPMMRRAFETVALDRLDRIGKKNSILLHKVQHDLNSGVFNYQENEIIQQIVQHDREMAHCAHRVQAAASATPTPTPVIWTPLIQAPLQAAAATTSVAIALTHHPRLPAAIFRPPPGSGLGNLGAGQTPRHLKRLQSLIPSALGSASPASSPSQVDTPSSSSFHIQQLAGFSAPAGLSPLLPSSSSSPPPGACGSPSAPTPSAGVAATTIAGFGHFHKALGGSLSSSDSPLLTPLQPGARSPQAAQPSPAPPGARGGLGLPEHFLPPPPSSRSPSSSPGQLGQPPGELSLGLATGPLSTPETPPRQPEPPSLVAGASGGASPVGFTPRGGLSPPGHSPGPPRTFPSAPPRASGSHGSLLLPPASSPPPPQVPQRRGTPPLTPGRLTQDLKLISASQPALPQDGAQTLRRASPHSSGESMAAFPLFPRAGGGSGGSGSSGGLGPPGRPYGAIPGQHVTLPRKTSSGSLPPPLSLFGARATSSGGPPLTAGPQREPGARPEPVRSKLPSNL
The experiment in a line: voltage clamp currents in mammalian cells stably transfected with cloned ion channel cDNA, hHCN4. Format: cell-based.
Source text: as §1

Another series has as its target hNav1.5 (Homo sapiens, UniProt Q14524). Kind of series: voltage clamp currents in mammalian cells stably transfected with cloned ion channel cDNA, hNav1.5. Format: cell-based.
Source text: as §1

The next series deals with hKv1.3 (Homo sapiens, UniProt P22001). The experiment in a line: voltage clamp currents in mammalian cells stably transfected with cloned ion channel cDNA, hKv1.3. Format: cell-based.
Source text: as §1

A further series deals with hCav3.2 (Homo sapiens, UniProt O95180). Kind of series: cell-based.
Source text: as §1

The next series concerns the target T3, hERG (Homo sapiens, UniProt Q12809).
T3 construct: expressed in transfected cells
Kind of series: voltage clamp currents in mammalian cells stably transfected with cloned ion channel cDNA, hERG. The format is cell-based.
Source text: as §1

The target of the next series is T4, hNav1.3 (Homo sapiens, UniProt Q9NY46).
T4 construct: expressed in transfected cells
Kind of series: voltage clamp currents in mammalian cells stably transfected with cloned ion channel cDNA, hNav1.3. The format is cell-based.
Source text: as §1

The target in a further series is T5, hKv1.1 (Homo sapiens, UniProt Q09470).
T5 construct: expressed in transfected cells
The experiment in a line: voltage clamp currents in mammalian cells stably transfected with cloned ion channel cDNA, hKv1.1. The format is cell-based.
Source text: as §1

Where [1] appears, read: 0.1 Hz, read-out: Estimated IC50 at 0.1 Hz.

Molecules are shown by their SMILES.

T4 sequence (Q9NY46 whole entry): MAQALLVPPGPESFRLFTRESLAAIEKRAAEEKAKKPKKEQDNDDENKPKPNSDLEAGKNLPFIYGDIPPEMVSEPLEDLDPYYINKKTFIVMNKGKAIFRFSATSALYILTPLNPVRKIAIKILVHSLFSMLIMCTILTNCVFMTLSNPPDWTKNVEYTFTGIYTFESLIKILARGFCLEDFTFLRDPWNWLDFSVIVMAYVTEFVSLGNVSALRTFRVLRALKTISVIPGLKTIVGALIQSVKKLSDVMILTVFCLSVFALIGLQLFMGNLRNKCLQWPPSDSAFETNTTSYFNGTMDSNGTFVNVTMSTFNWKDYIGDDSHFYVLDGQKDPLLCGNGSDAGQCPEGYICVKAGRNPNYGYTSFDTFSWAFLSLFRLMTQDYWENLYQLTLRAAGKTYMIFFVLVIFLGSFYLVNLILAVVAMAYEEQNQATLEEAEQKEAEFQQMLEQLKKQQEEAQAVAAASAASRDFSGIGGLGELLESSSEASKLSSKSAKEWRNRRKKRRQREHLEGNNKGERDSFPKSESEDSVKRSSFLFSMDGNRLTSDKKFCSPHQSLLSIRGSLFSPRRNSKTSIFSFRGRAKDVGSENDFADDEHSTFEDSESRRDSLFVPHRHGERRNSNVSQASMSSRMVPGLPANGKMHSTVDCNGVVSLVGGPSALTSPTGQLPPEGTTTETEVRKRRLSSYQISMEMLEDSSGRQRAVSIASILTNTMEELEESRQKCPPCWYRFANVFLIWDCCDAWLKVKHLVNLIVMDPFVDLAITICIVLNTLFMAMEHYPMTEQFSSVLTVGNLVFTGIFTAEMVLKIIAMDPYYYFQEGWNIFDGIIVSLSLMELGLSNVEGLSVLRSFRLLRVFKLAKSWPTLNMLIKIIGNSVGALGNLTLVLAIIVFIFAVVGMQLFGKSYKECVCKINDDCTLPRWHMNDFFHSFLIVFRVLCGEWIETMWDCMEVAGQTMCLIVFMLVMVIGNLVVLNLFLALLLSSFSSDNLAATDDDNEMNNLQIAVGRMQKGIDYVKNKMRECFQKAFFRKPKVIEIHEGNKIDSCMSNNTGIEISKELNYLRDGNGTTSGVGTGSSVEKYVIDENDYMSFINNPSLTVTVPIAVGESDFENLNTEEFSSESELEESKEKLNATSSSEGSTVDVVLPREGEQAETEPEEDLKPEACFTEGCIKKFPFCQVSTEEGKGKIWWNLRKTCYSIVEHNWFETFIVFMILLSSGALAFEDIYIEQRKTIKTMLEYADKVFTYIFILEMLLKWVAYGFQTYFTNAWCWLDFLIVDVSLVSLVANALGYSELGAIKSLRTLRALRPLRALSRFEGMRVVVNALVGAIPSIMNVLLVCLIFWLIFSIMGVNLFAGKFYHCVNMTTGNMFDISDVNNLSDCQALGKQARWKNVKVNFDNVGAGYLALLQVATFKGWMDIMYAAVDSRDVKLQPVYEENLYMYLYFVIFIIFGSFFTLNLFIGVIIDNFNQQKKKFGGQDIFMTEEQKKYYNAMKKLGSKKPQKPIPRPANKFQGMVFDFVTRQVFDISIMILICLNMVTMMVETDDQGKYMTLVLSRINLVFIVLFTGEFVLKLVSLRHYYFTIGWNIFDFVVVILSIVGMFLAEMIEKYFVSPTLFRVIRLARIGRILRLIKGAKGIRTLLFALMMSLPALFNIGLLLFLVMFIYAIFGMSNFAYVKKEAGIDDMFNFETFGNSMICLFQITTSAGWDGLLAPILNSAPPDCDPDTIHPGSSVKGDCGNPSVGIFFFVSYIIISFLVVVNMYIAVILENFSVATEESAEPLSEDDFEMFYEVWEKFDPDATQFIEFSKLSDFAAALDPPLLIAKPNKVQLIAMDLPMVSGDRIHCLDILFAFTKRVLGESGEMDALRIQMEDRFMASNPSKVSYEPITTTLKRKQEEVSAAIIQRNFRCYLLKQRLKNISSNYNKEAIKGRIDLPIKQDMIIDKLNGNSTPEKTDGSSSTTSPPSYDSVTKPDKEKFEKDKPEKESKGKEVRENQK
Chain of hCav3.2 (O95180 whole entry): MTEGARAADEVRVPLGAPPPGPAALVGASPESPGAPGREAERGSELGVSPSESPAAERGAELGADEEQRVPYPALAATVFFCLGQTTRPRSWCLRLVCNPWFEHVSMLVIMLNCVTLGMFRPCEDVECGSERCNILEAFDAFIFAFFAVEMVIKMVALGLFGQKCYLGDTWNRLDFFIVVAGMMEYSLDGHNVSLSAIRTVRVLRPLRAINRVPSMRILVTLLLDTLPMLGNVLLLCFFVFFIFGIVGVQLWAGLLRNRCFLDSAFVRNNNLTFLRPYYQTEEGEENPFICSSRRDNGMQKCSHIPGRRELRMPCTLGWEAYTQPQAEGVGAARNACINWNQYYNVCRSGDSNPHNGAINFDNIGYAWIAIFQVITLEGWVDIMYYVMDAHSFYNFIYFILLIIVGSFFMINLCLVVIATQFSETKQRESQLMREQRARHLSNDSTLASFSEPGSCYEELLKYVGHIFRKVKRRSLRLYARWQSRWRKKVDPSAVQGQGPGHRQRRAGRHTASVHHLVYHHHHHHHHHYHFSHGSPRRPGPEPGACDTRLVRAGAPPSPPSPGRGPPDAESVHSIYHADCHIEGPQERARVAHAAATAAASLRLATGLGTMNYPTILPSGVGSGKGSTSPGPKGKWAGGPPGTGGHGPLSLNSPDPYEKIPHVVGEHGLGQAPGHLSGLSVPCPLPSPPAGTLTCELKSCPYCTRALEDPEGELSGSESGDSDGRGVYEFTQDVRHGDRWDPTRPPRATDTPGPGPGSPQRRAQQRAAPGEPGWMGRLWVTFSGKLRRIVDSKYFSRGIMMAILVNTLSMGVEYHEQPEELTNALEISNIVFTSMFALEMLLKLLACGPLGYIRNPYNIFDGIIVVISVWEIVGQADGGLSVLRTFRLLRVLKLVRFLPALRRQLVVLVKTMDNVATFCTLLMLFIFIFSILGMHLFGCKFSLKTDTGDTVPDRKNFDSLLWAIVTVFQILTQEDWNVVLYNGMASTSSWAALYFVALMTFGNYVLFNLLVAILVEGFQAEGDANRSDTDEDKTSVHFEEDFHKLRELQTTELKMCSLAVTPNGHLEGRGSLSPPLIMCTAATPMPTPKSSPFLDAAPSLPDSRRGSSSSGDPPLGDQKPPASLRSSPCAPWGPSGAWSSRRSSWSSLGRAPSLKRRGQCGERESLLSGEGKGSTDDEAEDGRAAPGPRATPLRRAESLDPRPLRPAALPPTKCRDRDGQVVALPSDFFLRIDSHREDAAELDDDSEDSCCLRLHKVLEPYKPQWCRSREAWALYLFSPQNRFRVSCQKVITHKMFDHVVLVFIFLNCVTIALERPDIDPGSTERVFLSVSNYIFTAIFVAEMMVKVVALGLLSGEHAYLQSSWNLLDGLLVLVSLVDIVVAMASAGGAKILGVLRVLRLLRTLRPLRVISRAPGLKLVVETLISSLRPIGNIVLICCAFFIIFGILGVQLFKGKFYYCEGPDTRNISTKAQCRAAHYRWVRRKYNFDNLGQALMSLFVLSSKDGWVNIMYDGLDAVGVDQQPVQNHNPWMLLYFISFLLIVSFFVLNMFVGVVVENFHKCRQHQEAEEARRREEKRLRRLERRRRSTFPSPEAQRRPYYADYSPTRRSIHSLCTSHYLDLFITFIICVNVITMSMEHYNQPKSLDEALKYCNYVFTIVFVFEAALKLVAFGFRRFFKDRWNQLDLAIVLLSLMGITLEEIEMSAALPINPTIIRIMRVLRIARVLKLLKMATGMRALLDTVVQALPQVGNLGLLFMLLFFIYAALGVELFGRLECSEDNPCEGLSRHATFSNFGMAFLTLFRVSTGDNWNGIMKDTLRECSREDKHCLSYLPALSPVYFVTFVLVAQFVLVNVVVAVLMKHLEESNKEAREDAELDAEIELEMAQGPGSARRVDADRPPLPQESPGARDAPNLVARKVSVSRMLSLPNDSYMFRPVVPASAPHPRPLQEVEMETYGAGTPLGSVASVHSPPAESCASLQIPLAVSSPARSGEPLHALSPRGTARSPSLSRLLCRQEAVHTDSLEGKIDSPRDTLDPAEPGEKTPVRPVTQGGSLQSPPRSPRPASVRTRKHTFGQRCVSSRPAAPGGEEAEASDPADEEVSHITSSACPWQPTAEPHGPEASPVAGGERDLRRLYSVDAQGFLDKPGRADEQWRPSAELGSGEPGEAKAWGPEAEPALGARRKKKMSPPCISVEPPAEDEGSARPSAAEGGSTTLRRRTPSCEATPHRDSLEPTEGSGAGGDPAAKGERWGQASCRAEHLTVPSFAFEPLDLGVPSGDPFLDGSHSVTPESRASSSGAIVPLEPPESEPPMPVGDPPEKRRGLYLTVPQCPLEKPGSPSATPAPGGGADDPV
Chain of hKv1.3 (P22001 whole entry): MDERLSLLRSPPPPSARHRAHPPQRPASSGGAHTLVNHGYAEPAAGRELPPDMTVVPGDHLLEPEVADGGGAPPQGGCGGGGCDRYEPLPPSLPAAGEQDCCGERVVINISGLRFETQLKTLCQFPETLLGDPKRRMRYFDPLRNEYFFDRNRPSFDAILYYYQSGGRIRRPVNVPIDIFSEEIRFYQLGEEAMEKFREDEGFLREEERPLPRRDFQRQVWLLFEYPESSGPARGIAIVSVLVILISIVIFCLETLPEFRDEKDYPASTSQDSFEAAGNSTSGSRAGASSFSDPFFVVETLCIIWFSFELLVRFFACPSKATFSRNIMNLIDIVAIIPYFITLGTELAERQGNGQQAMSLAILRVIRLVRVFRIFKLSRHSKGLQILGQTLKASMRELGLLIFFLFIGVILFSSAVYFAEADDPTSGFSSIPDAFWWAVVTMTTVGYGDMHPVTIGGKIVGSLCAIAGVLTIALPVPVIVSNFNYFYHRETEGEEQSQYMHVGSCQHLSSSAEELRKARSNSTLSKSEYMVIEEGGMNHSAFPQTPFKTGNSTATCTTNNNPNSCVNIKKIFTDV

In the case of `O=c1[nH]c2ccccc2n1CCCN1CCC(n2c(=O)[nH]c3cc(Cl)ccc32)CC1` [domperidone, 1,3-dihydro-5-chloro-1-(1-(3-(2,3-dihydro-2-oxo-1H-benzimidazol-1-yl)propyl)-4-piperidinyl)-2H-benzimidazol-2-one], the “% Block at 1 μM/3 Hz” value on hCav1.2 (1 μM, 3 Hz) was 49.6%; at hNav1.5 (1 μM, 3 Hz), 23.7%; at hERG (1 μM, 3 Hz) it was 98.0%. The “% Block at 10 μM/0.1 Hz” value was 9% at hCav1.2 (10 μM, 0.1 Hz); 0.5% at hKv4.3 (10 μM); 20.3% at hHCN4 (10 μM); 37.3% at hNav1.5 (10 μM, 0.1 Hz); 17.6% at hKv1.3 (10 μM); 95.5% on hERG (10 μM, 0.1 Hz). Also, the results for the “% Block at 10 μM/0.1 Hz” value at hNav1.3 (10 μM) and at hKv1.1 (10 μM) were 4.6% and 1.9%, respectively. Besides, the IC50 at hKv4.3 (setting [1]) was 1990 µM; at hHCN4 (setting [1]) it was 30.3 µM; at hKv1.3 (setting [1]) it was 46.8 µM; at hCav3.2 (Estimated IC50 at 0.1 Hz, 0.1 Hz), 10.2 µM; on hCav3.2 (Estimated IC50 at 3 Hz, 3 Hz) it was 1.22 µM; on hNav1.3 (setting [1]) it was 207 µM. On hKv1.1 (setting [1]), the half-inhibitory concentration (IC50) is 516 µM.

Values taken from patent US20090143434A1 (priority 2007, published 2009).
